Measurements taken from patent publication US20120083508A1, “ALPHA-2B RECEPTOR AGONIST AND ANTICONVULSANT COMPOSITIONS FOR TREATING CHRONIC PAIN” (ALLERGAN, INC., priority 2006, published 2012).

Experiments:
[1] = tested on: Chung rat model of chronic pain; experiment: Chung rat model of chronic pain (allodynia reversal); type: in vivo; details: for PAIN REVERSAL: Compound No. 27 10 μg/kg given immediately after Gabapentin 10 mg/kg, rats; for pain relief when administered alone at the dose used in the combination: intraperitoneally, doses of Table 4 (No. 95 1 μg/kg, No. 27 10 μg/kg)
[2] = tested on: Chung rat model of chronic pain; experiment: as above; type: in vivo; details: for PAIN REVERSAL: rats
Protocol: Gabapentin was administered intraperitoneally to rats at a minimally effective dose; that is, the compound was administered at a dose that, when administered alone, is the minimum dose required to relieve pain (this dose was calculated by finding, first, the dose that produced drug's maximum effect—that is, the dose that fully alleviated pain—and dividing that dose by three; the result is a dose that is slightly less than 50% of the dose that is required to produce the drug's maximum effect). The rats then immediately received one of two alpha-2B receptor agonists, Compound No. 95 and Compound No. 27, or received no additional compound, at all. […] Pain reversal was then assessed using the Chung rat model of chronic pain. The model is described by Kim and Chung, Pain, […], at 355-363 (1992) and in U.S. Pat. No. 7,091,232, both of which are incorporated by reference herein.
The right-hand column in Table 5 provides the P values showing statistical significance comparing the effect of the alpha-2B receptor agonist+Gabapentin to the effect of Gabapentin alone. The significance was determined using a 2-sided unpaired Student t test.
(§1) A minimal effect is typically <50% reversal of allodynia. Optimal effects are typically >80% reversal of allodynia. Gabapentin by itself is not fully effective so its peak effect is about 62% reversal of allodynia. An ineffective intraperitoneal (IP) Gabapentin dose is 3 mg/kg. A minimally effective dose is 10 mg/kg and its peak effect is achieved with 30 mg/kg. […] Locomotor activity is determined automatically by placing the rat in a digicom analyzer chamber (Omnitech Electronic). These chambers have photocells criss-crossing the box that are broken as the animal moves around. The computer analyses this movement and records total activity over 5-minute time periods.

[3] = tested on: locomotor activity; experiment: Locomotor / exploratory activity in a novel chamber (digicom analyzer); type: in vivo, rat
Protocol: as §1

[4] = IP 1 ug/kg + Gabapentin 10 mg/kg

C1=NC(CC2CCc3ccccc3C2)CN1 (stereo not drawn) [Compound 27]
PAIN REVERSAL [1]: 78% | PAIN REVERSAL ([1]; listed as Compound No. 27): 78% | % Allodynia Reversal (30 min peak) ([1]; IP 10 ug/kg + Gabapentin 10 mg/kg): 77.50 ± 4.7% | % Allodynia Reversal (30 min peak) ([1]; IP, 10 ug/kg, alone): 43.75 ± 7.4% | % Allodynia Reversal (30 min peak) ([1]; IP, 30 ug/kg, alone): 74.59 ± 7.4% | % Allodynia Reversal (30 min peak) ([1]; IP, 100 ug/kg, alone): 90.86 ± 5.9% | pain relief when administered alone at the dose used in the combination ([1]; alone): not effective in relieving pain

C[C@@H](c1c[nH]c(=S)[nH]1)c1cccc2ncccc12 [Compound 95]
PAIN REVERSAL ([2]; Compound No. 95 1 μg/kg given immediately after Gabapentin 10 mg/kg): 75% | % Allodynia Reversal (30 min peak) [1, 4]: 75.46 ± 5.3% | % Allodynia Reversal (30 min peak) ([1]; PO, 1 ug/kg, alone): 1.52 ± 1.0% | % Allodynia Reversal (30 min peak) ([1]; PO, 3 ug/kg, alone): 58.21 ± 5.3% | % Allodynia Reversal (30 min peak) ([1]; PO, 10 ug/kg, alone): 78.43 ± 4.6% | % Allodynia Reversal (30 min peak) ([1]; PO, 30 ug/kg, alone): 81.53 ± 6.2% | % Allodynia Reversal (30 min peak) ([1]; PO, 100 ug/kg, alone): 81.26 ± 8.8% | pain relief when administered alone at the dose used in the combination ([1]; alone): not effective in relieving pain

OCCNC(=S)NCc1cccc(Cl)c1F [Compound 131]
% Allodynia Reversal (30 min peak) [2, 4]: 88.00 ± 5.4% | % Allodynia Reversal (30 min peak) ([1]; IP, 1 ug/kg, alone): 3.92 ± 1.8% | % Allodynia Reversal (30 min peak) ([1]; IP, 3 ug/kg, alone): 54.67 ± 6.1% | % Allodynia Reversal (30 min peak) ([1]; IP, 10 ug/kg, alone): 85.24 ± 6.0% | % Allodynia Reversal (30 min peak) ([1]; IP, 30 ug/kg, alone): 90.04 ± 6.1% | % Allodynia Reversal (30 min peak) ([1]; IP, 100 ug/kg, alone): 95.31 ± 4.7% | % Allodynia Reversal (30 min peak) ([1]; IP, 300 ug/kg, alone): 91.7 ± 5.3%

NCC1(CC(=O)O)CCCCC1 [Gabapentin]
PAIN REVERSAL ([2]; Gabapentin 10 mg/kg intraperitoneally, alone): 45% | PAIN REVERSAL ([2]; Gabapentin 10 mg/kg intraperitoneally, alone, listed as gabapentin): 45% | % Allodynia Reversal (30 min peak) ([2]; IP, 10 mg/kg, alone): 40.8 ± 9.3% | % Allodynia Reversal (30 min peak) ([2]; IP, 30 mg/kg, alone): 61.56 ± 5.7% | peak effect, reversal of allodynia ([1]; Gabapentin by itself, IP, peak effect achieved with 30 mg/kg): about 62% | % Allodynia Reversal (30 min peak) ([1]; IP, 1 mg/kg, alone): 5.89 ± 1.3% | dose at which peak effect is achieved ([1]; IP, alone): 30 mg/kg | ineffective intraperitoneal (IP) dose ([1]; IP, alone): 3 mg/kg | minimally effective dose ([1]; IP, alone, minimal effect is <50% reversal of allodynia): 10 mg/kg | sedative effects (locomotor activity) ([3]; 100 mg/kg): significantly reduced locomotor activity | reduction in exploratory activity compared to vehicle treated rats ([3]; 100 mg/kg intraperitoneally 15 minutes before novel chamber, between 40-60 minutes after dosing): > 50%
